According to patent US20160002204A1 (Board of Regents, The University of Texas System, priority 2014, published 2016):

Key:
[1] = molecular target: T1, GLS1 (purified recombinant human GAC) (Homo sapiens, UniProt O94925); assay: GLS1 enzymatic activity assay (dual-coupled, Amplex UltraRed/resorufin); assay type: biochemical
T1 sequence (O94925 55-598 isoform O94925-3 limits assumed): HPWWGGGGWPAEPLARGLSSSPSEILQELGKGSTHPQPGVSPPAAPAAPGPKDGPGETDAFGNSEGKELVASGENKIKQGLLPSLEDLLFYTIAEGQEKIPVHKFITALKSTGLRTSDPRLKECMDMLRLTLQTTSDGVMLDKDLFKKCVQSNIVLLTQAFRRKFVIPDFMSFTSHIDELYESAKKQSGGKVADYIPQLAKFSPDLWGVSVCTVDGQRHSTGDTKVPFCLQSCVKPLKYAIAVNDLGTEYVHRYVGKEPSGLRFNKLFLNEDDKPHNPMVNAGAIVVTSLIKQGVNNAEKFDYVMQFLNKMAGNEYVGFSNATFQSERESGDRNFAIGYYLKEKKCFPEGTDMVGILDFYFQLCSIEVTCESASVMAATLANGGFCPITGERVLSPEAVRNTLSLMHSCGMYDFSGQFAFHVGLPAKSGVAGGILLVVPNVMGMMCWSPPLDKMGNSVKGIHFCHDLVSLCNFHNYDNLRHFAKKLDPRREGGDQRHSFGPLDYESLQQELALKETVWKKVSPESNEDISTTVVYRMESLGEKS
Method: GLS1 Enzymatic Activity Assay
The inhibition of purified recombinant human GAC by varying concentrations of inhibitors is assessed via a dual-coupled enzymatic assay. The glutamate produced by the glutaminase reaction is used by glutamate oxidase to produce α-ketoglutarate, ammonia, and hydrogen peroxide, with this hydrogen peroxide subsequently being used by horseradish peroxidase to produce resorufin in the presence of Amplex UltraRed. The assay buffer consisted of 50 mM Hepes (pH 7.4), 0.25 mM EDTA and 0.1 mM Triton X-100. GAC was incubated with potassium phosphate (10 minutes at room temperature) prior to incubation with inhibitor (10 minutes at room temperature). The final reaction conditions were as follows: 2 nM GAC, 50 mM potassium phosphate, 100 mU/mL glutamate oxidase (Sigma), 1 mM glutamine (Sigma), 100 mU/mL horseradish peroxidase (Sigma), 75 μM Amplex UltraRed (Life Technologies), and 1% (v/v) DMSO. The production of resorufin was monitored on a Perkin Elmer Envision plate reader (excitation 530 nm, emission 590 nm) either in a kinetics or endpoint mode (at 20 minutes). IC50 values were calculated using a four-parameter logistic curve fit.

[2] = system: A549 cells; assay: A549 proliferation (viability) assay, Cell Titer Fluor, 72 hours; assay type: cell-based; conditions: Homo sapiens
Method: A549 cells were routinely maintained in RPMI 1640 media (Gibco catalog number 11875-093) supplemented with 10% dialyzed fetal bovine serum using a humidified incubator (37° C., 5% CO2 and ambient O2). In preparation for the viability assay, cells were inoculated into 384-well black CulturPlates (Perkin Elmer) at a density of 1000 cells/well in a volume of 40 uL. Following a 24-hour incubation at 37° C., 5% CO2 and ambient O2, cells were treated with compound (10 uL) in a final DMSO concentration of 0.5% (v/v). The microplates were then incubated for 72 hours (37° C., 5% CO2 and ambient O2). Cell Titer Fluor (Promega) was subsequently added (10 uL of 6× reagent) and mixed for 15 minutes at room temperature. The plates were then incubated for 30 minutes (37° C., 5% CO2 and ambient O2) and fluorescence was subsequently read on the Perkin Elmer Envision plate reader. EC50 values were calculated using a four-parameter logistic curve fit.

Structure (SMILES): O=C(Nc1ccn(CCC(F)Cn2cc(C(=O)NCc3cc(OC(F)(F)F)ccc3F)nn2)c(=O)c1F)C(=O)N1CCC[C@H](C(F)(F)F)C1 (mixture of isomers) [Example 435]
- IC50 [1]: < 100 nM
- EC50 [2]: < 100 nM

Structure (SMILES): CC(=O)OC(C(=O)Nc1ccn(CC[C@@H](F)Cn2cc(C(=O)NCc3cccc(OC(F)(F)F)c3)nn2)c(=O)c1F)c1ccccc1 (stereo in doubt) [Example 306, (R)-[(3-fluoro-1-{3-fluoro-4-[4-({[3-(trifluoromethoxy)phenyl]methyl}carbamoyl)-1H-1,2,3-triazol-1-yl]butyl}-2-oxo-1,2-dihydropyridin-4-yl)carbamoyl](phenyl)methyl acetate]
- IC50 [1]: < 100 nM
- EC50 [2]: < 100 nM

Structure (SMILES): O=C(Cc1ccccc1)Nc1ccn(CCCCc2nnc(NC(=O)Cc3ccccn3)s2)c(=O)c1 [Example 1, N-(2-oxo-1-(4-(5-(2-(pyridin-2-yl)acetamido)-1,3,4-thiadiazol-2-yl)butyl)-1,2-dihydropyridin-4-yl)-2-phenylacetamide]
- IC50 [1]: < 100 nM
- EC50 [2]: 500 to 5000 nM

Structure (SMILES): O=C(Cc1ccccc1)Nc1ccn(CCCCn2cc(C(=O)NCc3ccccc3)nn2)c(=O)c1 [Example 2, N-benzyl-1-(4-(2-oxo-4-(2-phenylacetamido)pyridin-1(2H)-yl)butyl)-1H-1,2,3-triazole-4-carboxamide]
- IC50 [1]: 100 to 500 nM
- EC50 [2]: 500 to 5000 nM

Structure (SMILES): CC(C)(C)OC(=O)Nc1ccn(CCCCn2cc(C(=O)NCc3cccc(OC(F)(F)F)c3)nn2)c(=O)c1 [Example 3, Tert-butyl(2-oxo-1-(4-(4-((3-(trifluoromethoxy)benzyl)carbamoyl)-1H-1,2,3-triazol-1-yl)butyl)-1,2-dihydropyridin-4-yl)carbamate]
- IC50 [1]: < 100 nM
- EC50 [2]: 100 to 500 nM

Structure (SMILES): Nc1ccn(CCCCn2cc(C(=O)NCc3cccc(OC(F)(F)F)c3)nn2)c(=O)c1 [Example 4, 1-(4-(4-Amino-2-oxopyridin-1(2H)-yl)butyl)-N-(3-(trifluoromethoxy)benzyl)-1H-1,2,3-triazole-4-carboxamide]
- IC50 [1]: 500 to 5000 nM
- EC50 [2]: > 5000 nM

Structure (SMILES): CC(C)CC(=O)Nc1ccn(CCCCn2cc(C(=O)NCc3cccc(OC(F)(F)F)c3)nn2)c(=O)c1 [Example 5, 1-(4-(4-(3-methylbutanamido)-2-oxopyridin-1(2H)-yl)butyl)-N-(3-(trifluoromethoxy)benzyl)-1H-1,2,3-triazole-4-carboxamide]
- IC50 [1]: < 100 nM
- EC50 [2]: 100 to 500 nM

Structure (SMILES): O=C(Cc1ccccn1)Nc1ccn(CCCCn2cc(C(=O)NCc3cccc(OC(F)(F)F)c3)nn2)c(=O)c1 [Example 6, 1-(4-(2-oxo-4-(2-(pyridin-2-yl)acetamido)pyridin-1 (2H)-yl)butyl)-N-(3-(trifluoromethoxy)benzyl)-1H-1,2,3-triazole-4-carboxamide]
- IC50 [1]: < 100 nM
- EC50 [2]: 500 to 5000 nM

Structure (SMILES): CC(C)COC(=O)Nc1ccn(CCCCn2cc(C(=O)NCc3cccc(OC(F)(F)F)c3)nn2)c(=O)c1 [Example 7, Isobutyl(2-oxo-1-(4-(4-((3-(trifluoromethoxy)benzyl)carbamoyl)-1H-1,2,3-triazol-1-yl)butyl)-1,2-dihydropyridin-4-yl)carbamate]
- IC50 [1]: < 100 nM
- EC50 [2]: 100 to 500 nM

Structure (SMILES): O=C(NCc1ccccc1)c1ccn(CCCCn2cc(C(=O)NCc3cccc(OC(F)(F)F)c3)nn2)c(=O)c1 [Example 8, N-Benzyl-2-oxo-1-(4-(4-((3-(trifluoromethoxy)benzyl)carbamoyl)-1H-1,2,3-triazol-1-yl)butyl)-1,2-dihydropyridine-4-carboxamide]
- IC50 [1]: < 100 nM
- EC50 [2]: 100 to 500 nM

Structure (SMILES): O=C(Cc1cccc(OC(F)(F)F)c1)Nc1ccn(CCCCn2cc(C(=O)NCc3ccccn3)nn2)c(=O)c1 [Example 10, 1-(4-(2-oxo-4-(2-(3-(trifluoromethoxy)phenyl)acetamido)pyridin-1(2H)-yl)butyl)-N-(pyridin-2-ylmethyl)-1H-1,2,3-triazole-4-carboxamide]
- IC50 [1]: < 100 nM
- EC50 [2]: 500 to 5000 nM

Structure (SMILES): Cc1ccn(CCCCn2cc(C(=O)NCc3cccc(OC(F)(F)F)c3)nn2)c(=O)c1 [Example 11, 1-(4-(4-methyl-2-oxopyridin-1(2H)-yl)butyl)-N-(3-(trifluoromethoxy)benzyl)-1H-1,2,3-triazole-4-carboxamide]
- IC50 [1]: 500 to 5000 nM
- EC50 [2]: > 5000 nM

Structure (SMILES): O=C(Cc1ccccc1)Nc1ccn(CCC(F)Cn2cc(C(=O)NCc3cc(OC(F)(F)F)ccc3F)nn2)c(=O)c1 (stereo not shown) [Example 12, 1-(2-fluoro-4-(2-oxo-4-(2-phenylacetamido)pyridin-1(2H)-yl)butyl)-N-(2-fluoro-5-(trifluoromethoxy)benzyl)-1H-1,2,3-triazole-4-carboxamide]
- IC50 [1]: < 100 nM
- EC50 [2]: < 100 nM

Structure (SMILES): O=C(Cc1ccccc1)Nc1ccn(CC(F)CCn2cc(C(=O)NCc3cc(OC(F)(F)F)ccc3F)nn2)c(=O)c1 (stereo not shown) [Example 13, 1-(3-fluoro-4-(2-oxo-4-(2-phenylacetamido)pyridin-1(2H)-yl)butyl)-N-(2-fluoro-5-(trifluoromethoxy)benzyl)-1H-1,2,3-triazole-4-carboxamide]
- IC50 [1]: < 100 nM
- EC50 [2]: < 100 nM

Structure (SMILES): O=C(Cc1ccccc1)Nc1ccn(CCCCc2ccc(NC(=O)Cc3cccc(OC(F)(F)F)c3)nn2)c(=O)c1 [Example 14, N-(2-oxo-1-(4-(6-(2-(3-(trifluoromethoxy)phenyl)acetamido)pyridazin-3-yl)butyl)-1,2-dihydropyridin-4-yl)-2-phenylacetamide]
- IC50 [1]: < 100 nM
- EC50 [2]: < 100 nM

Structure (SMILES): O=C(Cc1ccccc1)Nc1ccn(CCCCn2ccc(NC(=O)Cc3ccccc3)nc2=O)c(=O)n1 [Example 15, N,N′-(butane-1,4-diylbis(2-oxo-1,2-dihydropyrimidine-1,4-diyl))bis(2-phenylacetamide)]
- IC50 [1]: < 100 nM
- EC50 [2]: > 5000 nM

Structure (SMILES): O=C(Cc1ccccc1)Nc1ccn(CCCCc2nnc(NC(=O)Cc3cccnc3)s2)c(=O)n1 [Example 16, N-(2-oxo-1-(4-(5-(2-(pyridin-3-yl)acetamido)-1,3,4-thiadiazol-2-yl)butyl)-1,2-dihydropyrimidin-4-yl)-2-phenylacetamide]
- IC50 [1]: < 100 nM
- EC50 [2]: 500 to 5000 nM

Structure (SMILES): O=C(Cc1ccccc1)Nc1ccn(CCCCc2nnc(NC(=O)[C@@H](O)c3ccccc3)s2)c(=O)n1 [Example 17, (S)-2-hydroxy-N-(5-(4-(2-oxo-4-(2-phenylacetamido)pyrimidin-1(2H)-yl)butyl)-1,3,4-thiadiazol-2-yl)-2-phenylacetamide]
- IC50 [1]: < 100 nM
- EC50 [2]: > 5000 nM

Structure (SMILES): CC(=O)Nc1ccn(CCCCc2nnc(NC(=O)Cc3ccccc3)s2)c(=O)n1 [Example 18]
- IC50 [1]: 100 to 500 nM
- EC50 [2]: > 5000 nM

Structure (SMILES): O=C(Cc1cccc(OC(F)(F)F)c1)Nc1ccn(CCCCc2nnc(NC(=O)Cc3ccccc3)s2)c(=O)n1 [Example 19, N-(2-oxo-1-{4-[5-(2-phenylacetamido)-1,3,4-thiadiazol-2-yl]butyl}-1,2dihydropyrimidin-4-yl)-2-[3-(trifluoromethoxy)phenyl]acetamide]
- IC50 [1]: < 100 nM
- EC50 [2]: 100 to 500 nM

Structure (SMILES): O=C(Cc1ccccc1)Nc1ccc(CCCCn2ccc(NC(=O)Cc3ccccc3)nc2=O)nn1 [Example 20, N-(2-oxo-1-(4-(6-(2-phenylacetamido)pyridazin-3-yl)butyl)-1,2-dihydropyrimidin-4-yl)-2-phenylacetamide]
- IC50 [1]: < 100 nM
- EC50 [2]: < 100 nM

Structure (SMILES): O=C(Cc1ccccc1)Nc1ccc(CCCCn2ccc(NC(=O)[C@@H](O)c3ccccc3)nc2=O)nn1 [Example 22, (S)-2-hydroxy-N-(2-oxo-1-(4-(6-(2-phenylacetamido)pyridazin-3-yl)butyl)-1,2-dihydropyrimidin-4-yl)-2-phenylacetamide]
- IC50 [1]: < 100 nM
- EC50 [2]: 500 to 5000 nM

Structure (SMILES): O=C(Cc1cccc(OC(F)(F)F)c1)Nc1ccc(CCCCn2ccc(NC(=O)NCc3ccccc3)nc2=O)nn1 [Example 23, N-(6-(4-(4-(3-benzylureido)-2-oxopyrimidin-1(2H)-yl)butyl)pyridazin-3-yl)-2-(3-(trifluoromethoxy)phenyl)acetamide]
- IC50 [1]: < 100 nM
- EC50 [2]: 500 to 5000 nM
